{"source": "patent US8642341B2", "about": "“Materials and methods for gene mediated therapy of psychiatric disorders” (Cornell University, priority 2007, dated 2014)", "key": {"mice [1]": {"system": "mice", "assay": "mouse tail suspension test (TST)", "format": "in vivo", "details": "mice injected with control vector or no virus", "description": "(§1) Two mouse groups (n=10) received bilateral nucleus accumbens injections of AAV-p11-siRNA or control vector. The mouse groups are referenced herein as the “knockdown group” or “control” respectively. Behavioral testing began 6 weeks later, when expression from AAV vectors usually peaks. Behavioral testing included mouse tail suspension test (TST), open filed test, and forced swim test (FST).\n(§2) Knockdown and control groups of mice were transfected with AAV-p11-siRNA or control AAV vector, as described in Example 1. An additional control group was not transfected with any virus. The mice were subsequently treated with the antidepressant imipramine.\n(§3) The AAV plasmid shown in FIGS. 2 and 3 was used to generate a virus vector, which expresses the p11 gene product and which has the same AAV2 backbone described in Example 1. The resulting virus vector (“AAV-p11,” which is SEQ ID NO: 3) was injected into the nucleus accumbens of normal adult mice.\n(§4) Three groups of p11 knockdown mice (as in Example 1) were transfected with no virus, control virus vector, and the AAV-p11 virus vector of Example 3, respectively. Each knockdown transfectant group was compared to a wild-type counterpart group, which was also transfected with no virus, control virus vector, or AAV-p11. All virus transfections involved bilateral injection to the nucleus accumbens."}, "mice [2]": {"system": "mice", "assay": "forced swim test (FST)", "format": "in vivo, mouse", "details": "mice injected with control vector or no virus", "description": "as §1, §2, §3, §4"}}, "data": [{"smiles": "CN(C)CCCN1c2ccccc2CCc2ccccc21", "note": "[imipramine]", "values": [{"measurement": "immobility on the TST after imipramine", "setting": "mice [1]", "value": "decreased immobility"}, {"measurement": "immobility on the FST after imipramine", "setting": "mice [2]", "value": "decreased immobility"}]}]}
